Experimental data from patent US11471507B2, “HMGB1 antagonist” (THE FEINSTEIN INSTITUTES FOR MEDICAL RESEARCH, priority 2019, dated 2022).
“And” between values parts separate entries of the source, which are not always exact repeats. Equal values may be shown once. “Also recorded” adds a separate entry of the source. Read-outs that look alike come from different tables or passages of the source. Marks after values point to notes of the source that are not given here.

Tests used:
[1] = test system: CCI-induced neuropathic pain; assay: Chronic constriction injury of the sciatic nerve (CCI) neuropathic pain; design: species or system male Wistar rats; conditions: rat, in vivo
[2] = test system: CCI-induced neuropathic pain; assay: as above; assay type: in vivo, male Wistar rats; conditions: for Paw Withdrawal Latency: CCI
Description: The CCI rats each received surgery. […] Mechanical and thermal sensitivity tests were also performed over time. Hargreaves Thermal Hypersensitivity test was administered to the rats as well as Von Frey mechanical hypersensitivity test.
Rats (male Wistar, 150-180 gm, n=6/group) had CCI surgery. […] Two weeks after surgery, thermal (Hargreaves) or mechanical (von Frey) hypersensitivity was assessed. *: P<0.05 vs. PBS group. […]

[3] = test system: APAP-induced liver injury; assay: APAP-induced liver injury model; assay type: in vivo, male C57BL/6 mice
[4] = test system: PAMPs-induced TNF release (LPS, PGN, AGE, Poly I:C); assay: PAMPs-induced TNF release in human macrophages; assay type: cell-based; conditions: LPS 4 ng/ml, poly I:C 50 μg/ml, PGN 5 μg/ml, S100A12 50 μg/ml; 16 hours
[5] = in vivo
[6] = test system: DAMPs-induced TNF secretion (CIRP, SAA, PEDF, HSP 70, HSP90, H2A); assay: DAMPs-induced TNF secretion in human macrophages; assay type: cell-based; conditions: 16 hours
[7] = Pharmacokinetics after intravenous administration in rats (LC-MS)
[8] = Single-dose tolerability; assay type: in vivo; conditions: single-dose studies
[9] = test system: F11 cells; assay: Disulfide HMGB1-induced calcium influx in F11 cells; assay type: cell-based; conditions: relative fluorescent intensity; most inhibition at 50 μg/ml
Text: These studies all measured relative fluorescent intensity with FIG. 30C which included the largest amount of […]

[10] = in vivo; conditions: male, Sprague-Dawley, rat; for AUC(0-inf): iv, 1 mg/kg
[11] = test system: STZ-induced diabetes; assay: STZ-induced diabetes; assay type: in vivo, mice; conditions: 500 μg/mouse repetitive administration; vs PBS
Description: Mice were administered repetitive administration of […] (500 μg/mouse). […] Repetitive administration of […] was therefore shown to be beneficial in STZ-induced diabetes. […] (*: P<0.05 vs. PBS group. N=6-8 mice per group).

[12] = Solubility of K883; assay type: physicochemical
Text: This provides the basis for developing intravenous (IV) formulation that will serve as a benchmark for developing oral (PO) formulations.

[13] = test system: cecal ligation and puncture-sepsis; assay: Cecal ligation and puncture (CLP) sepsis; assay type: in vivo; conditions: male C57BL/6 mice; 500 μg/mouse IP once a day for 3 days starting 24 hours post CLP; n=15
[14] = test system: HMGB1-induced TNF release; assay: HMGB1-induced TNF release in human primary macrophages (ELISA); assay type: cell-based; conditions: FIG. 17A
Description: For all of these studies, TNF released was measured using an ELISA.

[15] = test system: APAP-induced liver injury; conditions: comparative data, cited from earlier work
[16] = test system: liver ischemia and reperfusion injury; conditions: 500 μg/mouse IP at time of I/R surgery; 6 hours; vs vehicle; cited from earlier work
[17] = test system: cecal ligation and puncture-sepsis; conditions: male C57BL/6 mice; 50 or 500 μg/mouse IP once a day for 4 days starting 24 hours post CLP; n=20; comparative data; cited from earlier work

## NC(=O)N(CCC(=O)O)NC(=O)[C@H](CO)NC(=O)[C@H](CO)NC(=O)N(N)Cc1ccccc1 [K883]
[1]
  CCI-induced CXCL1, TNF and IL-1β expression (spine): reduce CCI-induced CSCL1, TNF and IL-1β expression
  CCI-induced CXCL1 and TNF expression (DRGs): reduce CCI-induced CSCL1 and TNF expression
[2]; 800 μg/rat IP once a day for 3 days, Hargreaves, von Frey
  CCI-induced thermal and mechanical hypersensitivity: ameliorated both mechanical and thermal hypersensitivity; also recorded: improved CCI-induced thermal and mechanical hypersensitivity
[2]; 800 μg/rat IP once daily for three days
  tolerance to repeated treatment: did not develop tolerance
[2]; CCI rat model, vehicle 3.73+/−0.58 (SD)
  paw withdrawal: 5.45 ± 0.98 s
[2]; 0 hours post treatment
  Paw Withdrawal Latency: 4.1 ± 1.0 s
[2]; 2 hours post treatment
  Paw Withdrawal Latency: 4.3 ± 1.2 s
[2]; 6 hours post treatment
  Paw Withdrawal Latency: 6.0 ± 0.6* sec
[2]; 24 hours post treatment
  Paw Withdrawal Latency: 5.0 ± 0.5 s
[3]; 50 ugs/mouse, vs vehicle controls
  serum ALT: reduced serum ALT
[3]; APAP 350 mg/kg IP, K883 50 μg/mouse IP at 2 and 7 hours post-APAP, 24 hours, vs vehicle
  liver necrosis (H&E histology): reduced liver necrosis
[3]; APAP 400 mg/kg, 50 μg/mouse IP once-a-day for 5 days starting 2 hours post-APAP, 8 in the control group
  mice surviving the toxicity of APAP (2 weeks): 14 mice out of 15
[4]
  PAMPs-induced TNF release: failed to inhibit other PAMPS; also recorded: does not inhibit other PAMPs
[5]
  oral bioavailability: low oral bioavailability
[6]
  TNF secretion induced by other DAMPs: not inhibited
[7]; IV 1 mg/kg, 1 mg/kg
  AUClast, individual rats: 3772 ng·h/mL and 3807 ng·h/mL and 3749 ng·h/mL
  MRTlast, individual rats: 32.1 min and 31.7 min and 36.4 min
  Vss, individual rats: 0.163 L/kg
  t1/2, individual rats: 78 min
[7]; IV 1 mg/kg, 0.50 hr, 1 mg/kg
  Plasma concentration, individual rats: 2500 ng/mL and 3220 ng/mL
[7]; IV 1 mg/kg, 1.0 hr, 1 mg/kg
  Plasma concentration, individual rats: 1160 ng/mL and 1300 ng/mL
[7]; IV 1 mg/kg, 2.0 hr, 1 mg/kg
  Plasma concentration, individual rats: 130 ng/mL and 142 ng/mL
[7]; IV 1 mg/kg, 4.0 hr, 1 mg/kg
  Plasma concentration, individual rats: 15.1 ng/mL and 17.7 ng/mL
[7]; IV 1 mg/kg, 6.0 hr, 1 mg/kg
  Plasma concentration, individual rats: 4.04 ng/mL and 4.77 ng/mL
[7]; IV 1 mg/kg, 8.0 hr
  Plasma concentration, individual rats: 2.01 ng/mL
[7]; IV 1 mg/kg, 8.0 hr, 1 mg/kg
  Plasma concentration, individual rats: 0.871 ng/mL and 1.68 ng/mL
[7]; IV 1 mg/kg, mean of 3 rats
  AUClast, Mean: 3776 ng·h/mL
  MRTlast, Mean: 33.4 min
[7]; male, Sprague-Dawley, rat, in vivo, 1 mg/kg, in vivo half-life (T½)
  half-life: > 60 min
[7]; male, Sprague-Dawley, rat, in vivo, iv, 1 mg/kg
  AUC(0-inf): 3780 ng·h/mL
[7]; male, Sprague-Dawley, rat, in vivo, iv, 1 mg/kg, Plasma concentration, Mean, IV 1 mg/kg, 0.50 hr, mean of 3 rats
  concentration at 0.5 hr: 2910 ng/mL
[7]; male, Sprague-Dawley, rat, in vivo, iv, 1 mg/kg, Plasma concentration, Mean, IV 1 mg/kg, 1.0 hr, mean of 3 rats
  concentration at 1 hr: 1090 ng/mL
[7]; male, Sprague-Dawley, rat, in vivo, iv, 1 mg/kg, Plasma concentration, Mean, IV 1 mg/kg, 2.0 hr, mean of 3 rats
  concentration at 2 hr: 135 ng/mL
[7]; male, Sprague-Dawley, rat, in vivo, iv, 1 mg/kg, Plasma concentration, Mean, IV 1 mg/kg, 4.0 hr, mean of 3 rats
  concentration at 4 hr: 16.6 ng/mL
[7]; male, Sprague-Dawley, rat, in vivo, iv, 1 mg/kg, Plasma concentration, Mean, IV 1 mg/kg, 6.0 hr, mean of 3 rats
  concentration at 6 hr: 5.1 ng/mL
[7]; male, Sprague-Dawley, rat, in vivo, iv, 1 mg/kg, Plasma concentration, Mean, IV 1 mg/kg, 8.0 hr, mean of 3 rats
  concentration at 8 hr: 1.52 ng/mL
[7]; male, Sprague-Dawley, rat, in vivo, iv, 1 mg/kg, Plasma concentration, individual rats, IV 1 mg/kg, 0.50 hr
  concentration at 0.5 hr: 3020 ng/mL
[7]; male, Sprague-Dawley, rat, in vivo, iv, 1 mg/kg, Plasma concentration, individual rats, IV 1 mg/kg, 1.0 hr
  concentration at 1 hr: 814 ng/mL
[7]; male, Sprague-Dawley, rat, in vivo, iv, 1 mg/kg, Plasma concentration, individual rats, IV 1 mg/kg, 2.0 hr
  concentration at 2 hr: 133 ng/mL
[7]; male, Sprague-Dawley, rat, in vivo, iv, 1 mg/kg, Plasma concentration, individual rats, IV 1 mg/kg, 4.0 hr
  concentration at 4 hr: 17 ng/mL
[7]; male, Sprague-Dawley, rat, in vivo, iv, 1 mg/kg, Plasma concentration, individual rats, IV 1 mg/kg, 6.0 hr
  concentration at 6 hr: 6.49 ng/mL
[8]
  tolerability: well-tolerated
[9]
  disulfide HMGB1-induced calcium influx: inhibit disulfide hmgb1-induced calcium influx
[10]; Mean
  AUC(0-inf): 3780 ng·h/mL
[10]; individual rats
  AUC(0-inf): 3810 ng·h/mL
[10]; serum half-life
  half-life: > 60 min
[11]
  hyperglycemia: delays hyperglycemia
  insulitis: reduces insulitis
  weight gain: improves weight gain
[12]; aqueous with cosolvent or surfactant or cyclodextrin, PBS:PEG 300:propylene glycol:polysorbate 80 at 50:40:5:5, preliminary evidence, read-out: solubility in excipient mixture
  solubility: > 5000 µg/mL
[12]; water, read-out: solubility in water
  solubility: < 100 µg/mL
[13]
  sepsis lethality (survival 2 weeks): protects against sepsis lethality
[14]
  HMGB1-induced TNF secretion: inhibition

## NC(=O)[C@H](CCC(=O)O)NC(=O)[C@H](CO)NC(=O)[C@H](CO)NC(=O)[C@@H](N)Cc1ccccc1 [P5779]
[15]; 500 ugs/mouse
  serum ALT: significant reductions in ALT
[15]; APAP 350 mg/kg IP, P5779 50 or 500 μg/mouse IP at 2 and 7 hours, vs scrambled control peptide
  liver necrosis (H&E histology): reduced liver necrosis
[15]; APAP 400 mg/kg, 500 μg/mouse IP once a day for 5 days, n=30
  Percent survival (2 weeks) post-APAP: significantly improved
[16]
  Serum levels of ALT and AST: reduced
[17]
  sepsis lethality (survival 2 weeks): protects against sepsis lethality
